Reference: US5216159A (priority 1991, dated 1993)
Counter-ions that a name gives are not always drawn.

Molecular target: GABAa receptor
Experiment: GABAa receptor binding assay ([3H]-RO15-1788 [3H-Flumanzenil] displacement, rat cortical tissue)
Details: 0.5 nM 3H-RO15-1788, rat cortical tissue, 30 min at 4° C.
Method: The pharmaceutical utility of compounds of this invention are indicated by the following assay for GABAa receptor activity.
Assays are carried out as described in Thomas and Tallman (J. Bio. Chem. 156: 9838-9842, J. Neurosci. 3:433-440, 1983). Rat cortical tissue is dissected and homogenized in 25 volumes (w/v) of 0.05 M Tris HCl buffer (pH 7.4 at 4° C.). The tissue homogenate is centrifuged in the cold (4°) at 20,000×g for 20'. The supernatant is decanted and the pellet is rehomogenized in the same volume of buffer and again centrifuged at 20,000×g. The supernatant is decanted and the pellet is frozen at -20° C. overnight. The pellet is then thawed and rehomogenized in 25 volume (original wt/vol) of buffer and the procedure is carried out twice. The pellet is finally resuspended in 50 volumes (w/vol of 0.05 M Tris HCl buffer (pH 7.4 at […]).
Incubations contain 100 μl of tissue homogenate, 100 μl of radioligand 0.5 nM (^3 H-RO15-1788 [^3 H-Flumanzenil] specific activity 80 Ci/mmol), drug or blocker and buffer to a total volume of 500 μl. Incubations are carried for 30 min at 4° C. then are rapidly filtered through GFB filters to separate free and bound ligand. Filters are washed twice with fresh 0.05 M tris HCl buffer (pH 7.4 at 4° C.) and counted in a liquid scintillation counter. 1.0 μM diazepam is added to some tubes to determine nonspecific binding. Data are collected in triplicate determinations, averaged and % inhibition of total specific binding is calculated. Total Specific Binding=Total-Nonspecific. In some cases, the amounts of unlabeled drugs is varied and total displacement curves of binding are carried out. Data are converted to a form for the calculation of IC50 and Hill Coefficient (nH).
Work on `c1ccc(CN2CCc3[nH]c4cnc(-c5ccccc5)nc4c3C2)cc1` [Compound 32, 8-Benzyl-2-phenyl-5,6,7,9-tetrahydro-5H-pyrido[4,3-b]-pyrimidino[4,5-d]-pyrrole monohydrochloride] yielded an IC50 of 13 nM.
`c1csc(-c2ncc3[nH]c4c(c3n2)CCCC4)c1` [Compound 10, 2-(2-Thienyl)-6,7,8,9-tetrahydro-5H-indolo[3,2-d]-pyrimidine] gave an IC50 of 9 nM.
Compound `c1ccc(-c2ncc3[nH]c4c(c3n2)CC2(CC4)OCCO2)cc1` [Compound 12, 2'-Phenyl-5',6',7',9'-tetrahydro-spiro[(1,3)dioxolane-2,8'-indolo[3,2-d]-pyrimidine]] has an IC50 of 25 nM.
`c1ccc(-c2ncc3[nH]c4c(c3n2)COCC4)cc1` [Compound 26, 2-Phenyl-5,6,7,9-tetrahydro-5H-pyrano[4,3-b]pyrimidino[4,5-d]-pyrrole] showed an IC50 of 400 nM.
For `c1ccc(COC2CCc3[nH]c4cnc(-c5ccccc5)nc4c3C2)cc1` (centres unmarked) [Compound 5, 2-Phenyl-8-benzyloxy-6,7,8,9-tetrahydro-5H-indolo[3,2-d]-pyrimidine], the IC50 was 100 nM.
With `COc1ccc(-c2ncc3[nH]c4c(c3n2)CC2(CCCO2)CC4)cc1` (centres unmarked) [Compound 15, 2-(4-Methoxyphenyl)-4,5,5',6',7',9'-hexahydro-spiro[furan-2,8'(3H)-indolo[3,2-d]-pyrimidine]] the IC50 was 50 nM.
For `c1ccc(-c2ncc3[nH]c4c(c3n2)CCC4)cc1` [Compound 2, 2-Phenyl-cyclopent(g)-5H-pyrrolo[3,2-d]-pyrimidine], the IC50 was 110 nM.
With `c1ccc(-c2ncc3[nH]c4c(c3n2)CCCCC4)cc1` [Compound 3, 2-Phenyl-cyclohept(g)-pyrrolo[3,2-d]-5H-pyrimidine] the IC50 was 1000 nM.
Compound `COc1ccc(-c2ncc3[nH]c4c(c3n2)CCCC4)cc1` [Compound 7, 2-(4-Methoxyphenyl)-6,7,8,9-tetrahydro-5H-indolo[3,2-d]-pyrimidine] has an IC50 of 39 nM.
With `COc1ccc(-c2ncc3[nH]c4c(c3n2)CCC4)cc1` [Compound 9, 2-(4-Methoxyphenyl)-cyclopent(g)-5H-pyrrolo[3,2-d]-pyrimidine] the IC50 was 18 nM.
In the case of `CN1C(=O)CCC12CCc1[nH]c3cnc(-c4ccccc4)nc3c1C2` (centres unmarked) [Compound 11, 1-Methyl-2-phenyl-5,6,7,9-tetrahydro-spiro[indolo[3,2-d]-pyrimidine-2',8-pyrrolidin-5'-one]], the IC50 is reported as 50 nM.
`c1ccc(-c2ncc3[nH]c4c(c3n2)CCCC4)cc1` [Compound 1, 2-Phenyl-6,7,8,9-tetrahydro-5H-indolo[3,2-d]-pyrimidine] gave an IC50 of 100 nM.

Tested on: benzodiazepine binding site
Experiment: not given
Details: cited from earlier work
For `CN1CCc2cc3c(cc2C1C1OC(=O)c2c1ccc1c2OCO1)OCO3` (single isomer, unassigned; (-)) [(-) bicuculline], the “blockade of enhancement of benzodiazepine binding by GABA agonists” value is given as “much less active”.
In the case of `CN1CCc2cc3c(cc2C1C1OC(=O)c2c1ccc1c2OCO1)OCO3` (single isomer, unassigned; (+)) [(+) bicuculline], the “blockade of enhancement of benzodiazepine binding by GABA agonists” value is given as “blocked”.
